Type in all cases: cell-based, human
For one test, the system named is DLD-1-S611R. Nature of the test: Proliferation/colony formation assay. Conditions: read-out: median IC50, three independent experiments.
For a further test, the system named is HCT-116, DLD-1 and U2OS. Conditions: read-out: IC50 (cell viability).
The test system of the next test is HeLa-C604F. Nature of the test: Proliferation/colony formation assay. Conditions: read-out: median IC50, three independent experiments.
For the next test, the system named is HCT-116-C604Y. Nature of the test: Proliferation/colony formation assay. Conditions: read-out: median IC50, three independent experiments.
In another test the test system is HeLa-C604Y. Nature of the test: Proliferation/colony formation assay. Conditions: read-out: median IC50, three independent experiments.
Another test concerns HCT-116. Nature of the test: Proliferation/colony formation assay. Conditions: read-out: median IC50; HCT-116 parental; three independent experiments.
The next test deals with HCT-116-I531M. Nature of the test: Proliferation/colony formation assay. Conditions: read-out: median IC50, three independent experiments.
The next test deals with HeLa. Nature of the test: Proliferation/colony formation assay. Conditions: read-out: median IC50; HeLa parental; three independent experiments.
In a further test the test system is HeLa-I598F. Nature of the test: Proliferation/colony formation assay. Conditions: read-out: median IC50, three independent experiments.
In another test the test system is DLD-1. Nature of the test: Proliferation/colony formation assay. Conditions: read-out: median IC50; DLD-1 parental; three independent experiments.
[1] abbreviates: three cancer cell lines HCT-116, DLD-1 and U2OS, Supplementary Figures 2a-c.

Read-outs that look alike come from different tables or passages of the source.

As a reminder, the IC50 is the concentration that inhibits the measured activity by half.

On to `Cc1cc(N2CCOCC2)ccc1Nc1nc(NC2CCCCC2)c2[nH]cnc2n1` [MPI-0479605], for which the IC50 was more than 2 µM with DLD-1-S611R; 0.063 to 0.153 µM in the test on HCT-116, DLD-1 and U2OS (setting [1]); more than 2 µM in the test with HeLa-C604F; more than 2 µM with HCT-116-C604Y; more than 2 µM with HeLa-C604Y.

In the case of `CCc1cccc(CC)c1NC(=O)c1nn(C)c2c1CCc1cnc(Nc3ccc(C(=O)NC4CCN(C)CC4)cc3OC(F)(F)F)nc1-2` [NMS-P715], the IC50 in the test with HCT-116, DLD-1 and U2OS (setting [1]) is more than 0.15 µM; with HCT-116-C604Y it was more than 2 µM; in the test on HeLa-C604Y, more than 2 µM.

Take `c1nc2nc(Nc3ccc(N4CCOCC4)cc3)nc(NC3CCCCC3)c2[nH]1` [Reversine, reversine]: in the test on HCT-116, DLD-1 and U2OS (Homo sapiens), the half-maximal inhibitory concentration (IC50) was in the range of 0.063 to 0.153 µM.

In the case of AZ3146, the concentration for half-maximal inhibition (IC50) in the test on HCT-116 was 0.56 µM; in the test with DLD-1-S611R it was more than 5 µM; in the test with HCT-116-I531M, 3.06 µM; in the test on HeLa, 1.33 µM; with HeLa-I598F it was 3.85 µM; in the test with DLD-1, 0.719 µM. The IC50 with HeLa-C604F is 2.74 µM; with HCT-116-C604Y, more than 5 µM; in the test on HeLa-C604Y, more than 5 µM.

Values taken from PMC4867491 (Oncogene, 2015).
